Here are results for 2 compounds from patent publication US8906115B2, “Method for the antimicrobial finishing of textiles and fibers” (Sanitized AG, priority 2006, dated 2014).

The subject of this assay is Staphylococcus aureus 6538 P. The experiment in a line: antibacterial effect / germ reduction of finished textiles after washing, test standard not stated. Conditions: less pronounced than tannic acid, gallic acid, stearic acid or L-phenylalanine. The class given is cell-based. As for the experimental part: The two samples finished in this way are washed at 40° C. and dried between the washing cycles. After 20 and 30 washing cycles, the antibacterial effect against Staphylococcus aureus 6538 P is tested.
In an experimental finishing. 14 kilograms of an orange colored tricot made of polyester/polyamide/elastan are prewashed at 60° C., then 280 grams of L-phenylalanine and 110 liters of water are added. Allow to prerun for 10 minutes, heated to 60° C. at 3° C. per minute and left to run for 15 minutes at 60° C. 80 grams of Sanitized T 99-19 in 2 liters of water are added and left to run for a further 30 minutes at 60° C. The liquor is cooled to 35° C. and then drawn off. 40 liters of water for rinsing are added, left to run for two minutes and the rinse water is drawn off. The textile is discharged via press-off rolls and dried on a tenter at 120° C. After 50 washing cycles in accordance with EN ISO 6330 (6A), washed with the colorfast detergent according to ECE 77, a sample achieves a germ count reduction of factor 100 (log reduction=2.0) compared with the inoculum.

Regarding `CCCCCCCCCCCCCCCCCCN` [octadecylamine], the “antimicrobial effect after washing when used as primer (P), in words” value was “improvement in the antimicrobial effect after washing”.
In the case of `O=C(O)c1ccc(C(=O)O)cc1` [terephthalic acid, benzene-1,4-dicarboxyolic acid] it was “improvement in the antimicrobial effect after washing”.
